These results are taken from patent US20260248788A1, “NEW COMPOUNDS AND TREATMENT OF RENAL CELL CARCINOMA” (TRUSTLIFE THERAPEUTICS INC., priority 2023, published 2026).

Entries after “also recorded” stand apart in the source; their conditions may differ. *1 amine or outer side, *2 acyl side, *3 side chain or, on linkers, in order; H or OH if unused. Where a SMILES comes first, the peptide text is derived from it. Bridges are numbered along the chain shown (N, C = ends). Roman numbers before positions name the chains, in order. [ ]: non-standard residue; d: D form. Actinocin(9to1) = Cc1c2oc3c(C)ccc(C(=O)[*:1])c3nc-2c(C(=O)[*:2])c(N)c1=O; NMeV = CN[C@H](C(=O)O)C(C)C; Sar = CNCC(=O)O

What all share (format): cell-based, human
In one data set the test system is Caki-1. In words: Cell Counting Kit-8 (CCK-8) cell viability assay. As to conditions: Caki-1, 24 h; TG-101209 6 nM, NVP-TAE684 3 nM, MK-0752 5 nM, withaferin-a 4 μM, panobinostat 5 nM; vs DMSO. On the procedure:
Cell culture 1: Human clear cell renal cell carcinoma (ccRCC) cell line Caki-1 was obtained from the Karolinska Institute of Environmental Medicine, Stockholm, Sweden, derived from a ccRCC patient. The cells were cultured in RPMI 1640 medium with 10% fetal bovine serum (FBS) and 1% penicillin/streptomycin. The cells were cultivated at 37° C. in a humidified incubator with 5% CO2. TG-101209, NVP-TAE684, MK-0752, actinomycin-d, and panobinostat were purchased from Selleckchem ([…], […], […], […], […], Selleckchem, Houston, TX, USA), and withaferin-a was purchased from Sigma (W4394, Sigma-Aldrich, Saint Louis, MO, USA). These drugs were dissolved in DMSO. The cells (from cell culture 1) were seeded in a 96-well plate at 20×10^3 cells per well. After seeding for 24 h, the cells were treated for 24 h with the target drugs: TG-101209 (6 nM), NVP-TAE684 (3 nM), MK-0752 (5 nM), withaferin-a (4 μM), actinomycin-d (0.3 nM), and panobinostat (5 nM). The cells in the negative control group were only treated by DMSO for one day. Cell proliferation was detected by Cell Counting Kit-8 (CCK-8) assay. The 10 μl of CCK-8 reagent (1:10) was added to each well of 96-well plate with siRNA transfected cells or drug-treated cells by manufacturer's instruction. The 96-well plate was incubated at 37° C. for 2 hours and then measured absorbance at 450 nm using a microplate reader (Hidex Sense Beta Plus).

In a further data set the test system is RRM2. The experiment in a line: Western blot of RRM2 protein level in drug-treated Caki-1. The note with it: Caki-1, 24 h; NVP-TAE684 3 nM, MK-0752 5 nM, withaferin-a 4 μM, actinomycin-d 0.3 nM; vs DMSO. Here is the method:
(§1) Cell culture 1: Human clear cell renal cell carcinoma (ccRCC) cell line Caki-1 was obtained from the Karolinska Institute of Environmental Medicine, Stockholm, Sweden, derived from a ccRCC patient. The cells were cultured in RPMI 1640 medium with 10% fetal bovine serum (FBS) and 1% penicillin/streptomycin. The cells were cultivated at 37° C. in a humidified incubator with 5% CO2.
(§2) TG-101209, NVP-TAE684, MK-0752, actinomycin-d, and panobinostat were purchased from Selleckchem (S2692, S1108, S2660, S8964, S1030, Selleckchem, Houston, TX, USA), and withaferin-a was purchased from Sigma (W4394, Sigma-Aldrich, Saint Louis, MO, USA). These drugs were dissolved in DMSO. The cells (from cell culture 1) were seeded in a 96-well plate at 20×10^3 cells per well. After seeding for 24 h, the cells were treated for 24 h with the target drugs: TG-101209 (6 nM), NVP-TAE684 (3 nM), MK-0752 (5 nM), withaferin-a (4 μM), actinomycin-d (0.3 nM), and panobinostat (5 nM). The cells in the negative control group were only treated by DMSO for one day.
The cells were washed with phosphate-buffered saline (PBS) and lysed with CelLytic M (C2978, Sigma-Aldrich, Saint Louis, MO, USA) lysis buffer containing protease inhibitors. The lysates were centrifuged at 12 000 rpm for 5 min, and the supernatant was collected. The proteins were separated by Mini-PROTEAN® TGX™ Precast Gels (BioRad, Berkeley, CA, USA) and transferred to a Trans-Blot Turbo Mini 0.2 μm PVDF Transfer Packs membrane (BioRad, Berkeley, CA, USA) by using Trans-Blot® Turbo™ Transfer System (Bio-Rad, Berkeley, CA, USA). The antibodies for BUB1B (HPA008419), RRM2 (HPA056994), CEP55 (HPA023430), ASF1B (HPA069385), CCNB2 (HPA008873), and GAPDH (sc47724, Santa Cruz Biotechnology, Inc.) were used for primary immunoblotting. All the antibodies were diluted at 1:10000 concentration. The membranes were incubated in primary antibody solution overnight at 4° C. with gentle rocking. […] The protein bands were detected with ImageQuanat™ LAS 500 (29-0050-63, GE) automatic exposure procedure or 6 min exposure.
In general terms: Immunoblotting shows a protein as a band on a membrane.

Data set [1] concerns Caki-1 cells. The experiment in a line: LDH cytotoxicity assay. On the procedure: (§3) Cell culture 2: Caki-1 was purchased from CLS Cell Lines Service (Germany). The cells were maintained in McCoy's 5A (modified) medium (16600082, Thermo Fisher Scientific, USA) and supplemented with 10% fetal bovine serum (FBS, F7524, Sigma-Aldrich), 1% Penicillin/Streptomycin (P4333, Sigma-Aldrich).
Lactate dehydrogenase (LDH) assay was performed with LDH Assay Kit (ab65393). […] 20 μl of media was analysed with LDH Assay Kit as per manufacturer's instruction.

Data set [2] deals with BUB1B. In words: Western blot of BUB1B in Caki-1 cells treated with TG-101209 derivatives. The note with it: Caki-1 cells, 5 μM of target drug, 1 day (FIG. 41, 56). Here is the method: as §3
The target drugs developed as alternatives to TG-101209, were dissolved in 0.1% DMSO (41639, Sigma-Aldrich). Caki-1 cells from cell culture 2 were seeded in a 6-well plate at 3×10^5 cells per well. […]
The cells were washed with PBS solution and then lysed with CelLytic M (C2978, Sigma-Aldrich) lysis buffer containing protease inhibitors (11836170001, Roche). The cell lysates were centrifuged at 12 000 rpm for 10 min and supernatants were collected. Protein Assay Dye Reagent (5000006, Bio-Rad) was used for the determination of protein concentration. The absorbance of the proteins was measured spectrophotometrically at 595 nm by a microplate reader (Hidex Sense Beta Plus). Protein electrophoresis was performed using Mini-PROTEAN® TGX™ Precast Gels (4561086, Bio-Rad) and then the separated proteins were transferred to a Trans-Blot Turbo Mini 0.2 μm PVDF Transfer Packs membrane (1704158, Bio-Rad) by using Trans-Blot® Turbo™ Transfer System (Bio-Rad). The membrane was blocked with 5% skim milk for 30 min at 4° C. with gentle rocking. After blocking, the membrane was treated with primary antibodies: Anti-BUB1B (HPA008419, Human Protein Atlas, Sweden) and Anti-Beta actin (ab8227, Abcam) as a loading control overnight at 4° C. on a rocking platform. After the treatment of primary antibodies, the membrane was washed three times with TBS-T buffer (A09-7500-100, Medicago). Then, Goat anti-Rabbit IgG-HRP (ab205718, Abcam) was treated as the secondary antibody for 30 min at 4° C. with gentle rocking.

The subject of data set [3] is BUB1B. In words: Western blot of BUB1B protein level in drug-treated Caki-1. The note with it: Caki-1, TG-101209 6 nM, 24 h, vs DMSO negative control. Here is the method: as §1, §2
The cells were washed with phosphate-buffered saline (PBS) and lysed with CelLytic M (C2978, Sigma-Aldrich, Saint Louis, MO, USA) lysis buffer containing protease inhibitors. […] The protein bands were detected with ImageQuanat™ LAS 500 (29-0050-63, GE) automatic exposure procedure or 6 min exposure.

The test system of data set [4] is Caki-1 cells. In words: MTT cell viability assay. On the procedure:
as §3
The cytotoxic effects of the TG-101209 and its alternatives on the Caki-1 cells were tested by MTT (Thiazolyl Blue Tetrazolium Bromide) method. 1.5×10^4 cells were seeded per well in a 96-well plate in 100 μL growth media. […] After the incubation period, 5 mg/ml MTT (M2128, Sigma-Aldrich) solution in PBS (10 μL) was added to each well. After 1 hour, the MTT solution and all media were removed from the wells. 100 μl of DMSO was added and mixed to dissolve the formazan crystals. Cell viability was analysed by measuring the absorbance of the dissolved formazan at a wavelength of 570 nm with a microplate reader (Hidex Sense Beta Plus).
(Tetrazolium assays rely on reduction of a dye to a coloured formazan, in cell work by metabolically active cells.)

Data set [5] relates to Caki-1 cells. The experiment in a line: Cell morphology (DIC images) of treated Caki-1 cells. The note with it: Caki-1, 10 μM, 1 day. The text has this: The effect of treatment of Caki-1 cells with the target compounds was further evaluated by monitoring the cell morphology of treated cells, see FIG. 52.
Where [6] appears, read: Caki-1, 10 μM, 1 day, second batch.
Setting [7] is: Caki-1, concentration not given.

Consider `COc1cc(N2CCC(N3CCN(C)CC3)CC2)ccc1Nc1ncc(Cl)c(Nc2ccccc2S(=O)(=O)C(C)C)n1` [NVP-TAE684], for which, in the data set with Caki-1, the “cell viability (CCK-8)” value is on record as “significantly reduced”. Moreover, in the data set on RRM2, the “protein level of RRM2 (Western blot)” value was “significantly suppressed”.
In the case of `Cc1c2oc3c(C)ccc(C(=O)N[C@@H]4C(=O)N[C@H](C(C)C)C(=O)N5CCC[C@H]5C(=O)N(C)CC(=O)N(C)[C@@H](C(C)C)C(=O)O[C@@H]4C)c3nc-2c(C(=O)N[C@@H]2C(=O)N[C@H](C(C)C)C(=O)N3CCC[C@H]3C(=O)N(C)CC(=O)N(C)[C@@H](C(C)C)C(=O)O[C@@H]2C)c(N)c1=O` [actinomycin-d] (I: T[dV]P[Sar][NMeV] / II: T[dV]P[Sar][NMeV]; ester I:1-I:C, II:1-II:C; linker I:N-II:N via Actinocin(9to1)), the “protein level of RRM2 (Western blot)” value in the data set with RRM2 is reported as “does not work for inhibiting RRM2”.
Take `CC1=C(CO)C(=O)O[C@@H]([C@@H](C)[C@H]2CC[C@H]3[C@@H]4C[C@H]5O[C@]56[C@@H](O)C=CC(=O)[C@]6(C)[C@H]4CC[C@]23C)C1` [withaferin-a]: the “cell viability (CCK-8)” value in the data set on Caki-1 is listed as “significantly reduced”. Besides, in the data set on RRM2, the “protein level of RRM2 (Western blot)” value was “significantly suppressed”.
A word on the IC50: it is the concentration that inhibits the measured activity by half. A lower IC50 goes with inhibition by little substance. Consider `Cc1cnc(Nc2ccc(N3CCN(C)CC3)cc2)nc1Nc1cccc(S(=O)(=O)NC(C)(C)C)c1` [TG-101209, reference compound], for which the “cytotoxic effect and dose dependence” value in the data set with Caki-1 cells [1] (Caki-1, 10 nM-30 μM) was “dose dependent toxicity”. Also, the “cell viability (CCK-8)” value in the data set with Caki-1 is “significantly reduced”. Further, the “expression levels of BUB1B (Western blot)” value in the data set with BUB1B [2] was “significantly lower the expression levels of BUB1B”. Further, the “protein level of BUB1B (Western blot)” value in the data set on BUB1B [3] is on record as “significantly decreased; also recorded: significantly reduced”. Further, the “change of IC50 values after 2 days compared to 1 day treatment” value with Caki-1 cells [4] (Caki-1 (FIG. 53-54)) is “largest decrease”. Moreover, the “effect on cell viability (MTT)” value with Caki-1 cells [4] (Caki-1, 10 μM, 1 day, first batch) is listed as “most profound effect”. Besides, the IC50 in the data set on Caki-1 cells [4] (Caki-1, 1 day (FIG. 43), text: after treatment with 5 μM) is ~3000 nM. Further, the “Ranking, Cell viability (%)” value with Caki-1 cells [4] (top five, MTT assay, 10 μM, 1 day, rank 1 = greatest reduction) was determined as 5.
For the compound `Cc1cnc(Nc2ccc(C(=O)Nc3ccc(OCCN4CCCC4)cc3)cc2)nc1Nc1cccc(S(=O)(=O)NC(C)(C)C)c1` [Compound M101P, 4-((4-((3-(N-(tert-butyl)sulfamoyl)phenyl)amino)-5-methylpyrimidin-2-yl)amino)-N-(4-(2-(pyrrolidin-1-yl)ethoxy)phenyl)benzamide], the “cytotoxicity (LDH assay)” value in the data set with Caki-1 cells [1] (setting [6]) was “greatest cytotoxicity”. Further, the “cell death / toxicity (LDH)” value in the data set with Caki-1 cells [1] (Caki-1, 10 and 30 μM) is “strong toxicity”. Also, the “cytotoxicity according to LDH assay (conclusion)” value in the data set with Caki-1 cells [1] (setting [7]) was “greatest cytotoxicity”. Further, in the data set with Caki-1 cells [1] (concentration not given), the “cytotoxicity (summary statement)” value is listed as “high cytotoxicity”. The “expression levels of BUB1B (Western blot)” value with BUB1B [2] is given as “ability to lower the expression levels of BUB1B”. For the same compound, in the data set on Caki-1 cells [5], the “mechanism according to morphology evaluation” value is “work as cytotoxic agents”. The “effect on the cell morphology” value in the data set with Caki-1 cells [5] (DIC images (FIG. 52)) was “distinct effect on the cell morphology”. For the same compound, in the data set on Caki-1 cells [4] (setting [6]), the “reduction in cell viability (MTT)” value is reported as “the greatest”. Further, in the data set with Caki-1 cells [4] (Caki-1, 10 μM, 27 h, 48 h and 72 h (FIG. 55)), the “cell viability over the treatment period (MTT)” value is “larger decrease in cell viability than TG-101209”. Further, the “reduction in cell viability according to MTT assay (conclusion)” value with Caki-1 cells [4] (setting [7]) is “greatest reduction in cell viability”. The “cell viability of treated cells (summary statement)” value in the data set on Caki-1 cells [4] (concentration not given) was “particularly low cell viability; also recorded: significantly reduced cell viability”.
